Data as given in ChEMBL document CHEMBL1201862, “PubChem BioAssay data set” (2004).
Activity calls are given as the source filed them.

What was measured:
Type in all cases: functional
[1] = target: T1, Heat shock factor protein 1 (Mus musculus, UniProt P38532); assay: HSF1 potentiators in luciferase reporter cells, confirmation, cell-based, NIH3T3, luminescence, dose retest (AID 435004);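 further: stress induced by proteasome inhibitor MG132 added 30 min after compound; luciferase reporter driven by HSF1 response element in NIH3T3 cells; actives raise luminescence as potentiators of the MG132 stress response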
T1 sequence (P38532 whole entry): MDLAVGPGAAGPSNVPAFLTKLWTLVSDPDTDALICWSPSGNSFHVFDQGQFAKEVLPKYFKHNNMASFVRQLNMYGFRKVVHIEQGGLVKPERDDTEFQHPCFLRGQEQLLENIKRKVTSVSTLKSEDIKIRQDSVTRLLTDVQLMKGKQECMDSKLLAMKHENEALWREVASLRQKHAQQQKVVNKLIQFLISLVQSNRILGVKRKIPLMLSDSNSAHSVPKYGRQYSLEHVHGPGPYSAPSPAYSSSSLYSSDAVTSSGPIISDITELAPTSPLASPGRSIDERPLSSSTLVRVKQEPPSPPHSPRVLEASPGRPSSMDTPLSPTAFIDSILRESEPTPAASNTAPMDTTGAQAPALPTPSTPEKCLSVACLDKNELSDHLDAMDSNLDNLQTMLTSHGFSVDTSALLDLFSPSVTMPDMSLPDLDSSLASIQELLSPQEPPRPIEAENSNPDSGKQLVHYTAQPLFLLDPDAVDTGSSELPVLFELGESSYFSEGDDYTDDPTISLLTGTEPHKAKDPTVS

[2] = target: T2, Apoptotic protease-activating factor 1 (Homo sapiens, UniProt O14727)
T2 sequence (O14727 whole entry): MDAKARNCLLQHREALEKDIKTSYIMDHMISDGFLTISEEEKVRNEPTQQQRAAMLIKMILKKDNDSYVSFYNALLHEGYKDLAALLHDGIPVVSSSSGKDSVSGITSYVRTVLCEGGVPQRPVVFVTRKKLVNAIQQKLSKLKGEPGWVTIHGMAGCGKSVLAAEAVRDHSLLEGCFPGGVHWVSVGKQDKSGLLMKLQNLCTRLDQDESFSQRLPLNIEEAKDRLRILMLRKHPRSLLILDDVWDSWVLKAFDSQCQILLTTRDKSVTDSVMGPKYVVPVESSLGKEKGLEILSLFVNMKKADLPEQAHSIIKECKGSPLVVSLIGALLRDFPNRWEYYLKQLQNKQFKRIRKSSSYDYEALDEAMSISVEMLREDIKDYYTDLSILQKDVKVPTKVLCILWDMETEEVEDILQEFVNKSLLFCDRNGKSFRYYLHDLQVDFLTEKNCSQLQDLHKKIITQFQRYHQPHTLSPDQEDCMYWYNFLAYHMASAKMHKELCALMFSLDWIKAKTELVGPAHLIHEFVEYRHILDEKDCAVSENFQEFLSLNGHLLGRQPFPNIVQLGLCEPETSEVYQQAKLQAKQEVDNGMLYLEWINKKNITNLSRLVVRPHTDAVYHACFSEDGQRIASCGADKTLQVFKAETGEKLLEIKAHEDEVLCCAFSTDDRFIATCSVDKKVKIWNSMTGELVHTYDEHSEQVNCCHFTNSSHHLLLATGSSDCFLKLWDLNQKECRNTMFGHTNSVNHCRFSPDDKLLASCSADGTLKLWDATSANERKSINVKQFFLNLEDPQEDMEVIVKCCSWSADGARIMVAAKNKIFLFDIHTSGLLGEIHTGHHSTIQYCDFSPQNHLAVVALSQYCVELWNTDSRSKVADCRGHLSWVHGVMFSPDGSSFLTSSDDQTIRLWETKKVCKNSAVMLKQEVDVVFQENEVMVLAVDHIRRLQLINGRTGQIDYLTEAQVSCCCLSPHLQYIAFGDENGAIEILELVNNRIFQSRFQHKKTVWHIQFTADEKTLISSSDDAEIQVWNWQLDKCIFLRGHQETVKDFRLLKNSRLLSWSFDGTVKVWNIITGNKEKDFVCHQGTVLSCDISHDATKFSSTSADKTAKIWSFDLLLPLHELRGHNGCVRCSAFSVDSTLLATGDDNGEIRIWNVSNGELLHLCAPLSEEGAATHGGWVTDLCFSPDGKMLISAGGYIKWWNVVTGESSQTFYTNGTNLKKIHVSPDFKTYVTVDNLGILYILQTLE

[3] = microbe, parasite or virus in culture; conditions: Mycobacterium tuberculosis
[4] = Shn3 3'UTR reporter inhibitors, dose response, cell-based, Clone20 osteoblasts, firefly luciferase, cherry-picked (AID 624132);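 further: firefly luciferase luminescence from reporter carrying the Shn3 3'UTR in osteoblasts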

## COc1cccc(/C=N/Nc2ccc([N+](=O)[O-])cn2)c1O
[1]
  EC50: 3.08 µM (active)

## CCc1ccc(S(=O)(=O)/N=C2\C=C(Nc3ccc(C(=O)O)cc3)C(=O)c3ccccc32)cc1
[2]
  IC50: 9.6 µM (active)

## Oc1c(C(c2ccccc2Cl)N2CCCC2)ccc2cccnc12 (centres undefined)
[3]
  CC50: 30.5 µM (active)
[4]
  AC50: 5.77 µM (active)
